Measured values as given in patent US5231107A, “Derivatives of the oxime of 1,2,5,6-tetrahydropyridine 3-carboxaldehyde, the process for their preparation, their use as medicaments and the compositions containing them” (priority 1987, dated 1993).
Like-named read-outs stand apart in the source and are kept apart here.

How the values were obtained:
[1] = in vivo; parameters: species or system male mice (CD1 Charles Rivers); settings: oral route, male CD1 mice, method of Miller and Tainter; for ED50: mouse, in vivo, read-out: DE50 (dose which causes diarrhoea in 50% of the animals)
Method: The test is carried out on male mice (CD1 Charles Rivers) weighing 25 to 30 g, which have fasted for 6 hours. The product dissolved at 5% in methocel is administered by oral route by means of an oesophage probe.
Control animals receive only the excipient.
After treatment, the animals are placed separately in cages of which the base is covered with blotting paper, and they are put under observation for 30, 60, 120 and 180 minutes.
The sheets of absorbent paper are changed after each observation.
The consistency of the feces is evaluated according to the method of Randall and Baruth (Arch. Int. Pharmacodyn. 220, 94, 1976) according to the following scale of values.
1: feces slightly soft, with or without a damp halo,
2: feces slightly soft, with a well-defined circle of humidity,
3: feces soft with a large circle of humidity,
4: feces without consistency with a very large circle of humidity.
For each product, the dose is noted which causes diarrhoea in 50% of the animals according to the method of Miller and Tainter (Proc. Soc. Exp. Biol. Med., 57, 261, 1944).

[2] = Variation of the body temperature (duration of action); assay type: in vivo, male mice (CD1 Charles Rivers)
Method: (§1) The test is carried out on male mice (CD1 Charles Rivers) weighing 25-30 g, which have fasted for 6 hours.
The temperature of the body is noted by means of a thermocouple inserted about 1.5 cm in the rectum and connected to an electric temperature recorder. […]
The duration of action of the products is determined, using the doses able to reduce the temperature by 1° to 1.5° C.

[3] = Hypothermic activity; assay type: in vivo, male mice (CD1 Charles Rivers); settings: Mus musculus, read-out: Effective dose (-1° C.)
Method: as §1
The temperature of the body is noted by means of a thermocouple inserted about 1.5 cm in the rectum and connected to an electric temperature recorder.
The products are administered by oral or sub-cutaneous route and the temperatures are noted at the instant 0 and at 30 minutes, 1 hour, 2 hours and 2-and-a-half hours after treatment.
The degree of hypothermia is evaluated as the difference between the treated animals and the controls, and the dose necessary to reduce the body temperature by 1° C. is noted.

[4] = tested on: ileum isolated from guinea-pig; experiment: Test of ileum isolated from guinea-pig; settings: Cavia porcellus, agonist activity, Tyrode solution, 37° C., read-out: pD2 (negative logarithm of the dose which produces 50% of the maximum effect) (converted)
Method: Pieces of ileum are removed from guinea-pigs killed by decapitation. The isolated ileum is placed in 10 cm^3 of Tyrode solution at 37° C. and aerated with a mixture of oxygen (95%) and carbon dioxide gas (5%). The contractions due to the products are registered by means of a detector connected to a polygraph. […].
The possible antagonist activity of the products is tested vis-a-vis acetylcholine.
The agonist activity is expressed in pD2 (negative logarithm of the dose which produces 50% of the maximum effect).
The antagonist activity is expressed in DE50 (dose reducing by 50% the maximum response induced by acetylcholine).

[5] = in vivo; settings: mouse, po
Method: The test was carried out on male mice (CD1 Charles Rivers), of 22 to 24 g, without food for 16 hours. […] The mortality is noted during the 7 days following the treatment.

[6] = intravenous route; cited from earlier work
[7] = tested on: central cholinergic system; settings: in vivo; cited from earlier work

## CON=CC1=CCCN(C(=O)Oc2ccc(Cl)cc2)C1 [Example 12, Methyl ether of 1-parachlorophenyloxy-carbonyl-1,2,5,6-tetrahydropyridin-3-carboxaldehyde oxime]
[1]
  ED50: > 50 mg/kg
[2]; 3.12 mg/kg os, 0 min
  Variations of the body temperature: +0.1 °C
[2]; 3.12 mg/kg os, 30 min
  Variations of the body temperature: -0.9 °C
[2]; 3.12 mg/kg os, 60 min
  Variations of the body temperature: -1.4 °C
[2]; 3.12 mg/kg os, 120 min
  Variations of the body temperature: -0.3 °C
[2]; 3.12 mg/kg sc, 0 min
  Variations of the body temperature: -0.1 °C
[2]; 3.12 mg/kg sc, 30 min
  Variations of the body temperature: -0.1 °C
[2]; 3.12 mg/kg sc, 60 min
  Variations of the body temperature: -1.1 °C
[2]; 3.12 mg/kg sc, 120 min
  Variations of the body temperature: -1.2 °C
[2]; 3.12 mg/kg sc, 180 min
  Variations of the body temperature: -0.5 °C
[3]; oral route (O.R.)
  ED (-1 C): 2.2 mg/kg
[3]; sub-cutaneous route (SC.R)
  ED (-1 C): 2.9 mg/kg
[4]
  EC50: > 100 µM
[5]
  LD50 at 168 h: > 1000 mg/kg

## CCOC(=O)N1CCC=C(C=NOC)C1 [Example 2, Methyl ether of 1-ethoxycarbonyl-1,2,5,6-tetrahydropyridin-3-carboxaldehydeoxime]
[1]
  ED50: 25 mg/kg
[2]; 5. mg/kg os, 0 min
  Variations of the body temperature: +0.2 °C
[2]; 5. mg/kg os, 30 min
  Variations of the body temperature: -1.2 °C
[2]; 5. mg/kg os, 60 min
  Variations of the body temperature: -1.1 °C
[2]; 5. mg/kg os, 120 min
  Variations of the body temperature: -0.1 °C
[2]; 5. mg/kg sc, 0 min
  Variations of the body temperature: +0.2 °C
[2]; 5. mg/kg sc, 30 min
  Variations of the body temperature: -1.5 °C
[2]; 5. mg/kg sc, 60 min
  Variations of the body temperature: -1.4 °C
[2]; 5. mg/kg sc, 120 min
  Variations of the body temperature: -0.1 °C
[3]; oral route (O.R.)
  ED (-1 C): 3.9 mg/kg
[3]; sub-cutaneous route (SC.R)
  ED (-1 C): 3.6 mg/kg
[4]
  EC50: 33.9 µM
[5]
  LD50 at 168 h: 175 mg/kg

## COC(=O)C1=CCCN(C)C1 [Arecoline, arecoline, reference compound]
[6]
  effect on patients having a memory defect: positive effect
[1]
  DE50 (dose which causes diarrhoea in 50% of the animals): 35 mg/kg
[7]
  duration of action of arecoline: short duration of action
[3]; oral route (O.R.)
  ED (-1 C): 194 mg/kg
[3]; sub-cutaneous route (SC.R)
  ED (-1 C): 3 mg/kg
[4]
  EC50: 0.331 µM

## C=CCOC(=O)N1CCC=C(C=NOC)C1 [Example 4, Methyl ether of 1-allyloxycarbonyl-1,2,5,6-tetrahydropyridin-3-carboxaldehyde oxime]
[1]
  ED50: 3 mg/kg
[2]; 2. mg/kg os, 0 min
  Variations of the body temperature: -0.1 °C
[2]; 2. mg/kg os, 30 min
  Variations of the body temperature: -1.2 °C
[2]; 2. mg/kg os, 60 min
  Variations of the body temperature: -1.1 °C
[2]; 2. mg/kg os, 120 min
  Variations of the body temperature: -0.1 °C
[2]; 2. mg/kg os, 180 min
  Variations of the body temperature: -0.1 °C
[2]; 2. mg/kg sc, 0 min
  Variations of the body temperature: -0.1 °C
[2]; 2. mg/kg sc, 30 min
  Variations of the body temperature: -0.9 °C
[2]; 2. mg/kg sc, 60 min
  Variations of the body temperature: -1.0 °C
[2]; 2. mg/kg sc, 120 min
  Variations of the body temperature: -0.2 °C
[2]; 2. mg/kg sc, 180 min
  Variations of the body temperature: -0.1 °C
[3]; oral route (O.R.)
  ED (-1 C): 1.6 mg/kg
[3]; sub-cutaneous route (SC.R)
  ED (-1 C): 1.8 mg/kg
[4]
  EC50: > 100 µM
[5]
  LD50 at 168 h: 175 mg/kg
